Measured values reported in ChEMBL document CHEMBL3727356, “Therapeutic compounds and compositions” (2014).

What was measured:
[1] = molecular target: Pyruvate kinase PKLR (Homo sapiens, UniProt P30613, R510Q); assay: Activation of PKR R510Q mutant (unknown origin) incubated for 60 mins in presence of ADP, PEP and NADH by Spectraax microplate reader based assay
[2] = molecular target: T1, Pyruvate kinase PKLR (Homo sapiens, UniProt P30613); assay: Activation of wild type PKR (unknown origin) incubated for 60 mins in presence of ADP, PEP and NADH by Spectraax microplate reader based assay
[3] = molecular target: Pyruvate kinase PKLR (Homo sapiens, UniProt P30613, R532W); assay: Activation of PKR R532W mutant (unknown origin) incubated for 60 mins in presence of ADP, PEP and NADH by Spectraax microplate reader based assay
[4] = molecular target: T1, Pyruvate kinase PKLR; assay: Activation of wild type PKR (unknown origin) by cell based assay

Measured: AC50

T1 sequence (P30613 whole entry): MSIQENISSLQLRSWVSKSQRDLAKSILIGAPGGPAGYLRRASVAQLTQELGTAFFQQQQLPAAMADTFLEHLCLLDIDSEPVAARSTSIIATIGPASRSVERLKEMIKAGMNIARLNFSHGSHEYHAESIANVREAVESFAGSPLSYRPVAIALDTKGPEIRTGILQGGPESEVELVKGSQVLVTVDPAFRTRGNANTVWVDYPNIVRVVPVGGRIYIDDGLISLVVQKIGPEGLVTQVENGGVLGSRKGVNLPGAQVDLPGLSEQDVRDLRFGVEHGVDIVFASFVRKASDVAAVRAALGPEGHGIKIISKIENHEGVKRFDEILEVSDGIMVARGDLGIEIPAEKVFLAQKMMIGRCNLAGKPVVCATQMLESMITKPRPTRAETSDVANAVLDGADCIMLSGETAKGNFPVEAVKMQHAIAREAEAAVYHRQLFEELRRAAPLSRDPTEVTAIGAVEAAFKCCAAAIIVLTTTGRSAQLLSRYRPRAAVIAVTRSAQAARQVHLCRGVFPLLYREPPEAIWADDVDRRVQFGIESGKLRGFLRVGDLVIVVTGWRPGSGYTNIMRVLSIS
Pyruvate kinase PKLR (Homo sapiens, UniProt P30613, R532W), sequence (P30613 whole entry R532W): as the sequence (P30613 whole entry) above, with R532W counted along it
Pyruvate kinase PKLR (Homo sapiens, UniProt P30613, R510Q), sequence (P30613 whole entry R510Q): as the sequence (P30613 whole entry) above, with R510Q counted along it

CC(C)CC1(O)CCN(C(=O)c2ccc(NS(=O)(=O)c3cccc4ncc(N)nc34)cc2)CC1
< 100 nM: all assays above

Cc1cnc2cccc(S(=O)(=O)Nc3ccc(C(=O)N4CCC(O)(CC(C)C)CC4)cc3)c2n1
< 100 nM: all assays above

Nc1cnc2c(S(=O)(=O)Nc3ccc(C(=O)N4CCC(O)(c5cccc(F)c5F)CC4)cc3)cccc2n1
< 100 nM: all assays above

Cc1nscc1CC1(O)CCN(C(=O)c2ccc(NS(=O)(=O)c3cccc4nccnc34)cc2)CC1
< 100 nM: all assays above

Nc1cnc2c(S(=O)(=O)Nc3ccc(C(=O)N4CCC(O)(CCCC(F)(F)F)CC4)cc3)cccc2n1
< 100 nM: all assays above

Cc1nscc1CC1(O)CCN(C(=O)c2ccc(NS(=O)(=O)c3cccc4scnc34)cc2)CC1
< 100 nM: all assays above

CC(C)CC1(O)CCN(C(=O)c2ccc(NS(=O)(=O)c3cccc4nc(N)cnc34)cc2)CC1
< 100 nM: all assays above
